Results taken from PubChem BioAssay AID1626 (SRMLSC, 2009).

Tested on: M. tuberculosis H37Rv growth inhibition
Experiment: M. tuberculosis H37Rv growth inhibitors, H37Rv strain (AID 1626)
Settings: for CC50: measured here: Vero cell cytotoxicity; for IC90: measured here: IC90 against H37Rv

In the case of `O=C(NCc1ccc(F)cc1)C(=O)Nc1nc(C23CC4CC(CC(C4)C2)C3)cs1`, the CC50 is reported as 21.4 µM.

Molecule `CC(C)c1ccc(Nc2nc(NCc3ccco3)nc(N3CCOCC3)n2)cc1` has an IC50 of 4.99 µM, an IC90 of 8.29 µM and a CC50 of 34.6 µM.

`CC(=O)c1ccc(OCC(=O)Nc2ccc3c(c2)CCC3)cc1` was tested, and the IC50 was 12.6 µM, the IC90 was > 100 µM and the CC50 was > 40 µM.

For `Cc1ccc(C)c(SCC(=O)OC/C(O)=C(\C#N)c2nc3ccccc3[nH]2)c1`, the IC50 was 3.09 µM, the IC90 was 4.9 µM and the CC50 was > 40 µM.

In the case of `COc1cccc(C(=O)/C=C/c2ccc(OCC#N)c(OC)c2)c1`, the IC50 is reported as 19.8 µM, the IC90 is reported as > 100 µM and the CC50 is reported as 12.4 µM.

With `COc1cccc2sc(Nc3nc(-c4ccccn4)cs3)nc12` the IC50 was < 0.195 µM, the IC90 was < 0.195 µM and the CC50 was 1.92 µM.

For `COc1cc2c(cc1NCc1ccc3c(c1)OCO3)oc1ccccc12`, the IC50 was 89.1 µM and the IC90 was > 100 µM.

Molecule `C=C1C(=O)O[C@@H]2C[C@@H](C)[C@@H]3C=CC(=O)[C@@]3(C)[C@@H](O)[C@H]12` has an IC50 of 3.84 µM, an IC90 of 6.64 µM and a CC50 of 1.84 µM.

For `CCC(C)Nc1nc2c(C)cccn2c(=O)c1C=Nc1ccc(OC)cc1` (stereo not drawn), the IC50 was 52.4 µM and the IC90 was > 100 µM.

`CCOC(=O)c1ccc(NC(=O)COc2ccccc2CNCCc2ccccc2)cc1` showed an IC50 of 4.77 µM, an IC90 of 6.88 µM and a CC50 of 25.2 µM.

`COc1cc(OC)c2cc[nH]c2c1` was tested, and the IC90 was > 100 µM.

`CCC(=Nc1ccccc1O)C1=C(O)CC(c2ccccc2)CC1=O` (stereo not drawn) was tested, and the IC50 was 1.51 µM, the IC90 was 1.72 µM and the CC50 was > 40 µM.

`Cc1ccc(C(=O)Nc2nc(C)c(C(=O)Nc3ccc4c(c3)CCC4)s2)cc1` gave an IC50 of 2.67 µM, an IC90 of 5.77 µM and a CC50 of 7.56 µM.

In the case of `O=C(Nc1nc2ccccc2[nH]1)C12CC3CC(CC(C3)C1)C2`, the IC50 is reported as 2.25 µM, the IC90 is reported as 13.1 µM and the CC50 is reported as > 40 µM.

Molecule `COC(=O)COc1ccc(-c2ccc(F)cc2)cc1C=O` has an IC50 of 5.69 µM and an IC90 of 9.92 µM.

With `O=C(COc1cccc(Cl)c1)Nc1ccc2c(c1)CCC2` the IC50 was 22.4 µM and the IC90 was > 100 µM.

For `CC(C)(c1ccccc1)c1ccc(OCC(O)CNC2CCN(Cc3ccccc3)CC2)cc1` (stereo not drawn), the IC50 was 4.53 µM, the IC90 was 6.06 µM and the CC50 was 6.22 µM.

With `O=C(c1coc2ccc(O)cc12)C1CC1` the IC50 was 27.5 µM and the IC90 was > 100 µM.

With `N#Cc1ccc(C(=O)Nc2nnc(-c3ccco3)o2)cc1` the IC50 was 7.95 µM, the IC90 was > 100 µM and the CC50 was > 40 µM.

For `CCOC(=O)c1ccc(NC(=O)CCNC(=O)c2ccc([N+](=O)[O-])cc2)cc1`, the IC90 was > 100 µM.

For `Cc1cc(NC(=O)c2cc(-c3ccncc3)nc3c(C)cccc23)no1`, the IC50 was 48.1 µM, the IC90 was 74.3 µM and the CC50 was 12.9 µM.

Work on `O=C(/C=C/c1cn(CC(O)CN2CCCCC2)c2ccccc12)c1ccccc1` (stereo not drawn) yielded an IC50 of 2.94 µM, an IC90 of 3.34 µM and a CC50 of 29.5 µM.

`O=C(NCc1nnc2c3ccccc3c(-c3ccccc3)nn12)c1ccc(Cl)cc1` was tested, and the IC50 was 3.04 µM, the IC90 was 3.32 µM and the CC50 was > 40 µM.

`COc1ccccc1N1CCN(c2nc(C)nc3c2oc2ccccc23)CC1` showed an IC50 of 1.74 µM, an IC90 of 3.89 µM and a CC50 of 5.01 µM.

`c1cc2c(cc1C1CCCCC1)c1c3n2CCCNC3CCC1` (stereo not drawn) showed an IC50 of 6.06 µM, an IC90 of 6.63 µM and a CC50 of 6.99 µM.

In the case of `Nc1cc2nc3ccccc3oc-2cc1=O`, the IC50 is reported as 0.368 µM, the IC90 is reported as 0.916 µM and the CC50 is reported as > 40 µM.

`CCOC(=O)c1ccc(NC(=O)C2CC2)cc1` was tested, and the IC50 was 28.5 µM and the IC90 was > 100 µM.

With `CSCCC(NC(=O)c1cc([N+](=O)[O-])cc([N+](=O)[O-])c1)c1nc2ccccc2[nH]1` (stereo not drawn) the IC50 was 5.37 µM and the IC90 was 5.96 µM.

In the case of `COc1ccc(NCC(=O)Nc2ccccc2C#N)cc1Cl`, the IC50 is reported as 97.8 µM and the IC90 is reported as > 100 µM.

For `O=C(Nc1nnc(-c2ccccn2)o1)c1cccc(Br)c1`, the IC50 was 12.4 µM, the IC90 was > 100 µM and the CC50 was > 40 µM.

With `Cc1cccc(N2CCN(C(=O)c3ccc(CNc4c(N5CCC(C)CC5)c(=O)c4=O)cc3)CC2C)c1` (stereo not drawn) the IC50 was 15.8 µM, the IC90 was 22.2 µM and the CC50 was > 40 µM.

For `C[C@H](NC(=O)c1[nH]cnc1C(=O)Nc1ccccc1)C(=O)OC(C)(C)C`, the IC50 was 1.68 µM, the IC90 was 5.62 µM and the CC50 was > 40 µM.

`CCOC(=O)c1ccc(NC(=O)CCc2nc(-c3ccccc3Cl)no2)cc1` was tested, and the IC50 was 0.511 µM, the IC90 was 57.8 µM and the CC50 was > 40 µM.

For `CCn1nnc(NC(=O)c2ccc(-c3ccc(Cl)cc3)o2)n1`, the IC50 was 19.8 µM and the IC90 was > 100 µM.

In the case of `CC(Oc1ccc(Cl)cc1Cl)c1nc(-c2ccc(NC(=O)c3ccncc3)cc2)no1` (stereo not drawn), the IC50 is reported as 33.5 µM, the IC90 is reported as > 100 µM and the CC50 is reported as > 40 µM.

`CSc1nsc(SCC(=O)Nc2ccc(OC(C)=O)cc2)n1` gave an IC50 of 2.56 µM and an IC90 of 3.79 µM.

`N=C1/C(=C/c2ccc(OC(=O)c3ccco3)cc2)C(=O)N=C2SC=CN12` was tested, and the IC90 was > 100 µM.

With `Cc1nc(-c2ccccn2)nc(SCC(=O)c2ccc(F)cc2)c1Cl` the IC50 was 7.37 µM, the IC90 was 13.8 µM and the CC50 was > 40 µM.

With `O=C(COC(=O)/C=C/c1cccs1)Nc1ccc2ccccc2c1` the IC50 was 90.8 µM and the IC90 was > 100 µM.
